Experimental data reported in patent publication US11214805B2, “Targeted nanocarriers for the administration of immunosuppressive agents” (MUSC FOUNDATION FOR RESEARCH DEVELOPMENT, priority 2014, dated 2022).

Columns and labels:
[1] = tested on: transplanted tracheas (chronic rejection); settings: graft stored 4 hrs at 4° C. in UW solution with additive; harvested 28 days after transplantation
Text: Twenty eight days later transplanted tracheas were harvested and assessed for the degree of chronic rejection.

MHC I = test: Western blot of MHC I in lysates of HUVEC treated with pro-inflammatory cytokine cocktail; type: cell-based, Human; settings: IL-1β, INFγ, TNFα cocktail; 10 or 100 ng/mL
Procedure: Cells were then lysed using mammalian protein extraction reagent (Pierce, Ill.) supplemented with Halt Protease and Phosphatase Inhibitor Cocktails. Lysates were centrifuged at 10,000 rpm for 15 minutes. All western blot reagents were purchased from Bio-Rad (CA) unless specified. The protein concentration of each lysate was determined via Bradford calorimetric Assay (Thermo Scientific, PA; 232225), and 1.6 μg of protein from each whole cell lysate was added to a 4-20% precast gel and subjected to SDS-page electrophoresis. Protein was transferred to a PVDF membrane by semi-dry transfer, where it was stained with anti-MHC class I antibody (W6) and blocked overnight with TBS-T (Tris-Buffered Saline-Tween 20) containing 5% nonfat dry milk and 0.5% BSA. An appropriate HRP-conjugated secondary antibody was added to fresh block solution at a 1:1000 dilution to incubate for 1 hour at room temperature. The protein band was then detected by enhanced chemiluminescence (ECL).

With CO[C@H]1C[C@@H]2CC[C@@H](C)[C@@](O)(O2)C(=O)C(=O)N2CCCC[C@H]2C(=O)O[C@H]([C@H](C)C[C@@H]2CC[C@@H](O)[C@H](OC)C2)CC(=O)[C@H](C)/C=C(\C)[C@@H](O)[C@@H](OC)C(=O)[C@H](C)C[C@H](C)/C=C/C=C/C=C/1C [free rapamycin, rapamycin] the “degree of chronic rejection (fibrosis, inflammation, epithelium) as compared to UW alone” value [1] was “reduced fibrosis, inflammation and preserved normal pseudo stratified respiratory epithelium” and the “level of MHC I expression in HUVEC” value (MHC I) was “able to down regulate”.
